Like-named read-outs stand apart in the source and are kept apart here.
Target: T1, human GPR119 (Homo sapiens, UniProt Q8TDV5)
T1 sequence (Q8TDV5 1-308 limits assumed): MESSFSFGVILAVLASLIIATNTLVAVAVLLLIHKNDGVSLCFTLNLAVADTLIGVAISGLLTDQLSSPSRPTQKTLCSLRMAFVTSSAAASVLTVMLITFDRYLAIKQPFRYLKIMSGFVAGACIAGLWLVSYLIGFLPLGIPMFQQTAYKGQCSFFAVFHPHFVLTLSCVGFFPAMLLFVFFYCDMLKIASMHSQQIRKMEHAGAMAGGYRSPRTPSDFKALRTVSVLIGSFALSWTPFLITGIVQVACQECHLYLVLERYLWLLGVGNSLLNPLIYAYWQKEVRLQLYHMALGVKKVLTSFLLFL
Assay: Measurement of GPR119 signaling (cAMP assay) in cells stably transfected with human GPR119
Format: cell-based

[1] = table column, cAMP stimulation, human GPR119, read-out: GPR119 Human EC50
[2] = cAMP stimulation, read-out: GPR119 HumC EC50
[3] = stated in the example text, cAMP stimulation, human GPR119, read-out: GPR119 Human EC50

| EC50 [1] [nM] | Structure (SMILES) | further results |
| --- | --- | --- |
| 26 | COCCc1noc(N2CCC([C@H]3C[C@H]3CCOc3ccc(S(C)(=O)=O)cn3)CC2)n1 [Example 216] | – |
| 8.8 | CC(C)c1noc(N2CCC([C@H]3C[C@H]3CCOc3ccc(CC(=O)N4Cc5nnc(C(F)(F)F)n5C(C)(C)C4)c(F)c3)CC2)n1 [Example 185] | – |
| 2.1 | CS(=O)(=O)c1ccc(OCC[C@@H]2C[C@@H]2C2CCN(c3noc(C4(C(F)(F)F)CC4)n3)CC2)nc1 [Example 244] | – |
| 6.6 | CC(C)OC(=O)N1CCC([C@H]2C[C@H]2CCOc2cc(F)c(S(C)(=O)=O)c(F)c2)CC1 [Example 39] | – |
| 6.3 | CC(C)c1noc(N2CCC([C@H]3C[C@H]3CCOc3ccc(CC(=O)NC4CC4(F)F)c(F)c3)CC2)n1 (stereo partly drawn) [Example 152] | – |
| 1.6 | CC(C)c1noc(N2CCC([C@H]3C[C@H]3CCOc3ccc(CC(=O)N4CCn5ncnc5C4)c(F)c3)CC2)n1 [Example 195] | – |
| 3.9 | CCN(CC)C(=O)Cc1ccc(OCC[C@@H]2C[C@@H]2C2CCN(c3nc(C(C)C)no3)CC2)cc1 [Example 136] | – |
| 1.1 | CC(C)c1noc(N2CCC([C@H]3C[C@H]3CCOc3ccc(CC(=O)N4C[C@H](F)[C@@H](F)C4)c(F)c3)CC2)n1 [Example 158] | – |
| 1.3 | CC(C)c1noc(N2CCC([C@H]3C[C@H]3CCOc3ccc(CC(=O)N4CCc5nccnc5C4)c(F)c3)CC2)n1 [Example 193] | – |
| 0.93 | COC1CN(C(=O)Cc2ccc(OCC[C@@H]3C[C@@H]3C3CCN(c4nc(C(C)C)no4)CC3)cc2F)C1 [Example 141] | – |
| 2.1 | Cc1nc2c(o1)CN(C(=O)Cc1ccc(OCC[C@@H]3C[C@@H]3C3CCN(c4nc(C(C)C)no4)CC3)cc1F)CC2 [Example 183] | – |
| 2 | COCCc1noc(N2CCC([C@H]3C[C@H]3CCOc3ncc(-n4cnnn4)cc3C)CC2)n1 [Example 228] | – |
| 12 | CC(C)COC(=O)N1CCC([C@H]2C[C@H]2CCOc2ccc(S(C)(=O)=O)cn2)CC1 [Example 19] | – |
| 16 | O=C(CC1CCCC1)N1CCC([C@H]2C[C@H]2CCOc2ccc(-n3cnnn3)cc2)CC1 [Example 82] | – |
| 2 | CC(C)c1noc(N2CCC([C@H]3C[C@H]3CCOc3ccc(S(C)(=O)=O)cn3)CC2)n1 [Example 209] | – |
| 7.5 | CC(C)c1noc(N2CCC([C@H]3C[C@H]3CCOc3ccc(CC(=O)NCC4CC4)c(F)c3)CC2)n1 [Example 155] | – |
| 3.8 | CC(C)c1noc(N2CCC([C@H]3C[C@H]3CCOc3ccc(S(C)(=O)=O)cc3F)CC2)n1 [Example 123] | – |

Second part, the compound before the results:

| Structure (SMILES) | EC50 [1] [nM] | further results |
| --- | --- | --- |
| COCc1noc(N2CCC([C@H]3C[C@H]3CCOc3ccc(CC(=O)N4CC(F)C4)c(F)c3)CC2)n1 [Example 199] | 2 | – |
| COCCc1noc(N2CCC([C@H]3C[C@H]3CCOc3ccc(-n4cnnn4)cn3)CC2)n1 [Example 232] | 10.6 | – |
| Cc1cc(OCC[C@@H]2C[C@@H]2C2CCN(c3nc(C(C)C)no3)CC2)ccc1CC(=O)N1CCC1 [Example 102] | – | EC50 [2]: 1.1 nM |
| O=C(Cc1ccc(OCC[C@@H]2C[C@@H]2C2CCN(C(=O)OCC3CC3)CC2)cc1F)N1CCC1 [Example 61, cyclopropylmethyl-4-((1R,2S)-2-{2-[4-(2-azetidin-1-yl-2-oxoethyl)-3-fluorophenoxy]ethyl}cyclopropyl)piperidine-1-carboxylate] | – | EC50 [3]: 2 nM |
| COCc1noc(N2CCC([C@H]3C[C@H]3CCOc3cc(F)c(CC(=O)N4CCOCC4)c(F)c3)CC2)n1 [Example 207] | 3.1 | – |
| CC(C)(C)OC(=O)N1CCC([C@H]2C[C@H]2CCOc2ccc(S(C)(=O)=O)cc2)CC1 [Example 35, tert-butyl 4-((1R,2S)-2-{2-[4-(methylsulfonyl)phenoxy]ethyl}cyclopropyl) piperidine-1-carboxylate] | – | EC50 [3]: 0.9 nM |
| CN(C)C(=O)Cc1cc(F)c(OCC[C@@H]2C[C@@H]2C2CCN(C(=O)OC3(C)CC3)CC2)cc1F [Example 62, 1-methylcyclopropyl 4-[(1R,2S)-2-(2-{4-[2-(dimethylamino)-2-oxoethyl]-2,5-difluorophenoxy}ethyl)cyclopropyl]piperidine-1-carboxylate] | – | EC50 (stated in the example text without 'GPR119', read-out: Human EC50): 2.2 nM |
| CC(C)c1noc(N2CCC([C@H]3C[C@H]3CCOc3cc(F)c(CC(=O)N4CC(F)C4)c(F)c3)CC2)n1 [Example 110] | – | EC50 [2]: 0.12 nM |
| CC(C)c1noc(N2CCC([C@H]3C[C@H]3CCOc3ccc(CC(=O)NC4CCC(F)(F)C4)c(F)c3)CC2)n1 (stereo partly drawn) [Example 191] | 2.8 | – |
| COCc1noc(N2CCC([C@H]3C[C@H]3CCOc3ccc(CC(=O)N4CCC4)c(F)c3)CC2)n1 [Example 115, 4-[(1R,2S)-2-{2-[4-(2-azetidin-1-yl-2-oxoethyl)-3-fluorophenoxy]ethyl}cyclopropyl]-1-[3-(methoxymethyl)-1,2,4-oxadiazol-5-yl]piperidine] | – | EC50 [3]: 5.8 nM |
| Cc1nc(C#N)cc(OCC[C@@H]2C[C@@H]2C2CCN(C(=O)OC(C)C)CC2)n1 [Example 46] | 1.2 | – |
| Cc1cc(CC(=O)N2CC(C)(O)C2)cnc1OCC[C@@H]1C[C@@H]1C1CCN(c2nc(C(C)C)no2)CC1 [Example 262] | 12 | – |
| COCc1noc(N2CCC([C@H]3C[C@H]3CCOc3ccc(CC(=O)N4CCC4)c(Cl)c3)CC2)n1 [Example 104] | – | EC50 [2]: 2.6 nM |
| Cc1cc(-n2cnnn2)cnc1OCC[C@@H]1C[C@@H]1C1CCN(C(=O)OCc2ccccc2)CC1 [Example 31] | 2.8 | – |
| CS(=O)(=O)c1ccc(OCC[C@@H]2C[C@@H]2C2CCN(C(=O)Cc3cccs3)CC2)nc1 [Example 91] | 36 | – |
| CC(C)CC(=O)N1CCC([C@H]2C[C@H]2CCOc2ccc(S(C)(=O)=O)cn2)CC1 [Example 86] | 29 | – |
| CCOCc1noc(N2CCC([C@H]3C[C@H]3CCOc3ccc(S(C)(=O)=O)cn3)CC2)n1 [Example 218] | 14 | – |
| CC(C)c1noc(N2CCC([C@H]3C[C@H]3CCOc3ccc(CC(=O)N4CCc5[nH]nnc5C4)c(F)c3)CC2)n1 [Example 197] | 2.9 | – |
| CC(C)c1nc(N2CCC([C@H]3C[C@H]3CCOc3ccc(CC(=O)N4CC(O)C4)c(F)c3)CC2)no1 [Example 255, 1-[(2-fluoro-4-{2-[(1S,2R)-2-{1-(5-isopropyl-1,2,4-oxadiazol-3-yl)piperidin-4-yl}cyclopropyl]ethoxy}phenyl)acetyl]azetidin-3-ol] | – | EC50 [3]: 1.6 nM |
| CC(C)c1noc(N2CCC([C@H]3C[C@H]3CCOc3ccc(CC(=O)N4CC(c5cccnc5)C4)c(F)c3)CC2)n1 [Example 190] | 3.6 | – |
| CC(C)c1noc(N2CCC([C@H]3C[C@H]3CCOc3ccc(CC(=O)N4CCCC4)cc3)CC2)n1 [Example 126] | 1.4 | – |
| CCC1(OC(=O)N2CCC([C@H]3C[C@H]3CCOc3ccc(CC(=O)N4CCC4)c(F)c3)CC2)CC1 [Example 74] | – | EC50 [2]: 2.7 nM |
| CC(C)c1noc(N2CCC([C@H]3C[C@H]3CCOc3ccc(CC(=O)N(C)Cc4cscn4)c(F)c3)CC2)n1 [Example 166] | 2.6 | – |
| CC(C)c1noc(N2CCC([C@H]3C[C@H]3CCOc3ccc(CC(=O)N4CCn5nc(C(F)(F)F)nc5C4)c(F)c3)CC2)n1 [Example 194] | 1.5 | – |
| CC(C)c1noc(N2CCC([C@H]3C[C@H]3CCOc3ccc(CC(=O)N4CCC4)c(F)c3)CC2)n1 [Example 138] | 2 | – |

— US8957062B2, “Substituted cyclopropyl compounds, compositions containing such compounds and methods of treatment” (Merck Sharp & Dohme Corp., priority 2011, dated 2015)
